Like-named read-outs stand apart in the source and are kept apart here.
What was measured:
JH2 domain of human Tyk2 = JH2 domain of human Tyk2 (Homo sapiens (Human), UniProt P29597); assay: JH2 Biochemical Assay (TR-FRET probe displacement); type: binding
Tyk2 = Tyk2 (Homo sapiens (Human), UniProt P29597); assay: pSTAT4 Cell Assay (MSD, NK92 cells); type: cell-based
JAK2 = JAK2 (Homo sapiens (Human), UniProt O60674); assay: pSTAT5 Cell Assay (MSD, TF1 cells); type: cell-based
Procedure, shortened: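 Serum-starved TF1 cells were pretreated with compound for 1 h (10-point four-fold series from 10 μM), then stimulated with 30 ng/mL IL-3 for 15 min. pSTAT5 in lysates was measured by MSD immunoassay. IC50 came from a 4-parameter logistic fit.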

JAK1 = JAK1 (Homo sapiens (Human), UniProt P23458); assay: pSTAT3 Cell Assay (MSD, TF1 cells); type: cell-based
Procedure, shortened: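 IC50 values reflect 4-parameter logistic fits of normalized pSTAT3 signal, measured by MSD in lysed TF1 cells. Cells were serum-starved and treated with compound for 1 h (top concentration 10 μM) before a 15 min IL-6 challenge.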

[1] = JH2 domain of human Tyk2, TR-FRET probe displacement
[2] = TR-FRET probe displacement, JH2 domain of human Tyk2
[3] = TR-FRET probe displacement, JH2 domain

Sequence of Tyk2 (P29597 whole entry): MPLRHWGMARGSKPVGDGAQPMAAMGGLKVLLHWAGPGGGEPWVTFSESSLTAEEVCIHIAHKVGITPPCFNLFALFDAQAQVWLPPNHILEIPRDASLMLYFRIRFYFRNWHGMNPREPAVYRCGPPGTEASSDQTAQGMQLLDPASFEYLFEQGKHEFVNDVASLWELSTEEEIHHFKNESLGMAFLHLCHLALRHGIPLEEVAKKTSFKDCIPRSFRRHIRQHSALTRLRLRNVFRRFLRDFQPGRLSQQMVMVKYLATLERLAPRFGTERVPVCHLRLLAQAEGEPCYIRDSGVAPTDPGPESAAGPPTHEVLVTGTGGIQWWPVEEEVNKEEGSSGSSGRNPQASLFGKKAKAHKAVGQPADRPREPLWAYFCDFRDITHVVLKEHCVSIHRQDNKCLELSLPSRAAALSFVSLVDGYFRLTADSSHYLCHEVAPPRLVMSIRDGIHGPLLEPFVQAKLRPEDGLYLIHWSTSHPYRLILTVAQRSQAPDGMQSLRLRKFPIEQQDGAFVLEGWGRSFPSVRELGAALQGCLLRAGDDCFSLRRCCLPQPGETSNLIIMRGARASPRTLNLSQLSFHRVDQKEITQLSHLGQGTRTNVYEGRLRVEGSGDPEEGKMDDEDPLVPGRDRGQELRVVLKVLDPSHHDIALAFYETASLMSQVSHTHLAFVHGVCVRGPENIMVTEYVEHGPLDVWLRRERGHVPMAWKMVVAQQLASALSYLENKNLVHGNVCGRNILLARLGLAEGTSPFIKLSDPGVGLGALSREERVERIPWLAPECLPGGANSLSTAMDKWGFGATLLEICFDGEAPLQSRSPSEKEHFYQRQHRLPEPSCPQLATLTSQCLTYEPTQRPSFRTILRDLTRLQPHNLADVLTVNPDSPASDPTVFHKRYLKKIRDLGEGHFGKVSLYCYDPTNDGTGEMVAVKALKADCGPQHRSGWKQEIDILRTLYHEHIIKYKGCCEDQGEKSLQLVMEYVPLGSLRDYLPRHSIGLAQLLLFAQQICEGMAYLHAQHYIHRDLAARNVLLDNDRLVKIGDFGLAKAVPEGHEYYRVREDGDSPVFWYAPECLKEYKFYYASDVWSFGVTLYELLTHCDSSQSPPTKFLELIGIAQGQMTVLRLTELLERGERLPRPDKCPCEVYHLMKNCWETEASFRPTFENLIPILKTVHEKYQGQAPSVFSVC
Sequence of JH2 domain of human Tyk2 (P29597 575-876): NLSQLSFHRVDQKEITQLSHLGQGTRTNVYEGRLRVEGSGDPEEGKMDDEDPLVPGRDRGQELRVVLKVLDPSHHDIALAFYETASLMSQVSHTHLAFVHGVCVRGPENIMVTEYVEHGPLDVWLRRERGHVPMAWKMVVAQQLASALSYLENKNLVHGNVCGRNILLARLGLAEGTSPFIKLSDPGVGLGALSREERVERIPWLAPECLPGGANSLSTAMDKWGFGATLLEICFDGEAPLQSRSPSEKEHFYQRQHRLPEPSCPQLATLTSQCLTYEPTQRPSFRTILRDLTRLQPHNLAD
Sequence of JAK1 (P23458 whole entry): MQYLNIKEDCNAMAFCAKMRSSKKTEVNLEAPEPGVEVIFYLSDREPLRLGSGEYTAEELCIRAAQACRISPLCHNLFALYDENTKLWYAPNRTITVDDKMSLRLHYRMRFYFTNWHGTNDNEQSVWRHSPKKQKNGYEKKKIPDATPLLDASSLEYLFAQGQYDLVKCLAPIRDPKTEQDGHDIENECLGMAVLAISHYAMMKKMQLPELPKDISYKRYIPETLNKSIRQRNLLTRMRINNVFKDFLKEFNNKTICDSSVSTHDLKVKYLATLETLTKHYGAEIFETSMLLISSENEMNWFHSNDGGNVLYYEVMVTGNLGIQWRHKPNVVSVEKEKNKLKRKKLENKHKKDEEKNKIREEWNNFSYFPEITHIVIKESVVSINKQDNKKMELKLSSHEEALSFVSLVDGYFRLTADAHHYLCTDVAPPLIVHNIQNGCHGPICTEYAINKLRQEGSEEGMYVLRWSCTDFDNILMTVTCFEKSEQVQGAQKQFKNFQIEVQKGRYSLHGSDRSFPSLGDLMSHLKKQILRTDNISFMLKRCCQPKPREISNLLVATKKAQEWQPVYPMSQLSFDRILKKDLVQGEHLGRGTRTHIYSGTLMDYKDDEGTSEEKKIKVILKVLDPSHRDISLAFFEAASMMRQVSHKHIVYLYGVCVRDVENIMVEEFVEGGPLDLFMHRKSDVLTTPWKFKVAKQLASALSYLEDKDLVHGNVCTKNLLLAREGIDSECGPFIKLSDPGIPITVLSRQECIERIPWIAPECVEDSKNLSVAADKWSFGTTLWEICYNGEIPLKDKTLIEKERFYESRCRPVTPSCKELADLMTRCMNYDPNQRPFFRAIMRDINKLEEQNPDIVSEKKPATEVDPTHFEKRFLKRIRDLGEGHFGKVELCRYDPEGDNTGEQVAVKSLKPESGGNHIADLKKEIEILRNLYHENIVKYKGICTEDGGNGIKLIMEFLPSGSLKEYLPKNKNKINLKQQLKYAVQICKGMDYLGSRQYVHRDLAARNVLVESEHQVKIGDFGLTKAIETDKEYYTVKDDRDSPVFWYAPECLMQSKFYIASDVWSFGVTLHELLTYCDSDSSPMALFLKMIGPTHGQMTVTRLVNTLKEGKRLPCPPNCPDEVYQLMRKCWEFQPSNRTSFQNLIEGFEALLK
Sequence of JAK2 (O60674 whole entry): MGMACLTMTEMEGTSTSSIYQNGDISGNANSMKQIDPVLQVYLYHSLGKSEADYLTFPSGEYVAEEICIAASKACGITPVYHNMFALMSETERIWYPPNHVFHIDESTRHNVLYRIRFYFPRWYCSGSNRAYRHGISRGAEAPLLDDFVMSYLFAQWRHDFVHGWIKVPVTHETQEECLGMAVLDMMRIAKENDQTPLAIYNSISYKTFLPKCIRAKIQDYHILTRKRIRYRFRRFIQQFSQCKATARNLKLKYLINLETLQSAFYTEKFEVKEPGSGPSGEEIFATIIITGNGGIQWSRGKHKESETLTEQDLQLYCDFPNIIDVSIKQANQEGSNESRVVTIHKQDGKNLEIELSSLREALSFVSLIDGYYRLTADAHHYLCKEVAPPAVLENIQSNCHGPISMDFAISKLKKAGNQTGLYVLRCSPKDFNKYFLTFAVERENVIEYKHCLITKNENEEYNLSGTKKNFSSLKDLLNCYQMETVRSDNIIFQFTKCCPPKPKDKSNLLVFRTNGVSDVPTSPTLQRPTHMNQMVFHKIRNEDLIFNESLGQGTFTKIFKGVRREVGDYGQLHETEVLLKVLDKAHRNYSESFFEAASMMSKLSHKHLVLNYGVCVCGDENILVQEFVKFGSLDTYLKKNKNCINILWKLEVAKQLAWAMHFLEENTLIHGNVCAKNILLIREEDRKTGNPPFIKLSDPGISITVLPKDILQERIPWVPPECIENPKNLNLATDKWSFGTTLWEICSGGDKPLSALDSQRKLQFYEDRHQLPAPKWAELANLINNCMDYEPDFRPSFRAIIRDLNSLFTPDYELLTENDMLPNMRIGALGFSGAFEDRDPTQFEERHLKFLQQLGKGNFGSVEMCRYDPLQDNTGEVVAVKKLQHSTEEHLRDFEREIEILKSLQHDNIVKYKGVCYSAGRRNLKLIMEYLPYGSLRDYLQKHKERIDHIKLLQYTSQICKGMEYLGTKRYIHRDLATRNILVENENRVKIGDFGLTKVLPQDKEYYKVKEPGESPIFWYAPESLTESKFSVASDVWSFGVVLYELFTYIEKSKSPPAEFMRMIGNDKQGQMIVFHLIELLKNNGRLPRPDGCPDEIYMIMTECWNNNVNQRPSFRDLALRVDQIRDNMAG

SMILES: COCCOc1ccc(-c2cnc(NC(C)=O)cc2Nc2cc(C)nc(C(C)(F)F)n2)nc1 [Example 522, N-(4′-((2-(1,1-difluoroethyl)-6-methylpyrimidin-4-yl)amino)-5-(2-methoxyethoxy)-[2,3′-bipyridin]-6′-yl)acetamide]
- IC50 (JH2 domain of human Tyk2; [1]): ≤ 10 nM
- IC50 (Tyk2; MSD): ≤ 10 nM
- IC50 (JAK2; IL-3 stimulated, MSD): ≥ 1000 nM
- IC50 (JAK1; IL-6 stimulated, MSD): ≥ 1000 nM

SMILES: CC(=O)Nc1cc(Nc2ccnc(C(C)(F)F)n2)c(-c2ccc(C#N)cn2)cn1 [Example 146, N-(5-cyano-4′-((2-(1,1-difluoroethyl)pyrimidin-4-yl)amino)-[2,3′-bipyridin]-6′-yl)acetamide]
- IC50 (JH2 domain of human Tyk2; [2]): ≤ 10 nM
- IC50 (Tyk2; MSD): ≤ 10 nM
- IC50 (JAK2; IL-3 stimulation, MSD): ≥ 1000 nM
- IC50 (JAK1; IL-6 stimulation, MSD): ≥ 1000 nM

SMILES: CC(=O)Nc1cc(Nc2cc(C)nc(C(C)(F)F)n2)c(-c2ccc(C#N)cn2)cn1 [Example 145, N-(5-cyano-4′-((2-(1,1-difluoroethyl)-6-methylpyrimidin-4-yl)amino)-[2,3′-bipyridin]-6′-yl)acetamide]
- IC50 (JH2 domain of human Tyk2; [2]): ≤ 10 nM
- IC50 (Tyk2; MSD): ≤ 10 nM
- IC50 (JAK2; IL-3 stimulation, MSD): ≥ 1000 nM
- IC50 (JAK1; IL-6 stimulation, MSD): ≥ 1000 nM

SMILES: CC(=O)Nc1cc(Nc2cc(C)nc(C(C)(C)F)n2)c(-c2ccn3ncnc3n2)cn1 [Example 534, N-(5-([1,2,4]triazolo[1,5-a]pyrimidin-5-yl)-4-((2-(2-fluoropropan-2-yl)-6-methylpyrimidin-4-yl)amino)pyridin-2-yl)acetamide]
- IC50 (JH2 domain of human Tyk2; [1]): ≤ 10 nM
- IC50 (Tyk2; MSD): ≤ 10 nM
- IC50 (JAK2; IL-3 stimulated, MSD): ≥ 1000 nM
- IC50 (JAK1; IL-6 stimulated, MSD): ≥ 1000 nM

SMILES: CC(=O)Nc1cc(Nc2ccnc(C(C)(F)F)n2)c(-c2ccc(OC(F)F)cn2)cn1 [Example 826, N-(4′-((2-(1,1-difluoroethyl)pyrimidin-4-yl)amino)-5-(difluoromethoxy)-[2,3′-bipyridin]-6′-yl)acetamide]
- IC50 (JH2 domain of human Tyk2; [3]): ≤ 10 nM
- IC50 (Tyk2): ≤ 10 nM
- IC50 (JAK2; IL-3 stimulated): ≥ 1000 nM
- IC50 (JAK1; IL-6 stimulated): ≥ 1000 nM

SMILES: COc1ccc(-c2cnc(NC(C)=O)cc2Nc2cc(C)nc(C(C)(F)F)n2)nn1 [Example 676, N-(4-((2-(1,1-difluoroethyl)-6-methylpyrimidin-4-yl)amino)-5-(6-methoxypyridazin-3-yl)pyridin-2-yl)acetamide]
- IC50 (JH2 domain of human Tyk2; [1]): ≤ 10 nM
- IC50 (Tyk2; MSD): ≤ 10 nM
- IC50 (JAK2; IL-3 stimulated, MSD): ≥ 1000 nM
- IC50 (JAK1; IL-6 stimulated, MSD): ≥ 1000 nM

SMILES: CC(=O)Nc1cc(Nc2cc(C)nc(C(C)(F)F)n2)c(-c2cocn2)cn1 [Example 596, N-(4-((2-(1,1-difluoroethyl)-6-methylpyrimidin-4-yl)amino)-5-(oxazol-4-yl)pyridin-2-yl)acetamide]
- IC50 (JH2 domain of human Tyk2; [1]): ≤ 10 nM
- IC50 (Tyk2; MSD): ≤ 10 nM
- IC50 (JAK2; IL-3 stimulated, MSD): ≥ 1000 nM
- IC50 (JAK1; IL-6 stimulated, MSD): ≥ 1000 nM

SMILES: CC(=O)Nc1cc(Nc2cc(C)nc(C34COC(C3)C4)n2)c(-c2ccn(C)n2)cn1 [Example 552, N-(4-((2-(2-oxabicyclo[2.1.1]hexan-4-yl)-6-methylpyrimidin-4-yl)amino)-5-(1-methyl-1H-pyrazol-3-yl)pyridin-2-yl)acetamide]
- IC50 (JH2 domain of human Tyk2; [1]): ≤ 10 nM
- IC50 (Tyk2; MSD): 10 to 100 nM
- IC50 (JAK2; IL-3 stimulated, MSD): ≥ 1000 nM
- IC50 (JAK1; IL-6 stimulated, MSD): ≥ 1000 nM

SMILES: CC(=O)Nc1cc(Nc2cc(C)nc(C(C)(F)F)n2)c(-c2cc3n(n2)CCOC3)cn1 [Example 528, N-(4-((2-(1,1-difluoroethyl)-6-methylpyrimidin-4-yl)amino)-5-(6,7-dihydrO4H-pyrazolo[5,1-c][1,4]oxazin-2-yl)pyridin-2-yl)acetamide]
- IC50 (JH2 domain of human Tyk2; [1]): ≤ 10 nM
- IC50 (Tyk2; MSD): ≤ 10 nM
- IC50 (JAK2; IL-3 stimulated, MSD): ≥ 1000 nM
- IC50 (JAK1; IL-6 stimulated, MSD): ≥ 1000 nM

SMILES: CCOc1cnc(NC(C)=O)cc1Nc1cc(-c2cnn(CC)c2)nc(C(C)(F)F)n1 [Example 311, N-(4-((2-(1,1-difluoroethyl)-6-(1-ethyl-1H-pyrazol-4-yl)pyrimidin-4-yl)amino)-5-ethoxypyridin-2-yl)acetamide]
- IC50 (JH2 domain of human Tyk2; [2]): ≤ 10 nM
- IC50 (Tyk2; MSD): 10 to 100 nM
- IC50 (JAK2; IL-3 stimulation, MSD): ≥ 1000 nM
- IC50 (JAK1; IL-6 stimulation, MSD): ≥ 1000 nM

SMILES: CC(=O)Nc1cc(Nc2cc(C)nc(C(C)(F)F)n2)c(-c2nc3c(s2)CCN(C)C3)cn1 [Example 237, N-(4-((2-(1,1-difluoroethyl)-6-methylpyrimidin-4-yl)amino)-5-(5-methyl-4,5,6,7-tetrahydrothiazolo[4,5-c]pyridin-2-yl)pyridin-2-yl)acetamide]
- IC50 (JH2 domain of human Tyk2; [2]): ≤ 10 nM
- IC50 (Tyk2; MSD): ≤ 10 nM
- IC50 (JAK2; IL-3 stimulation, MSD): ≥ 1000 nM
- IC50 (JAK1; IL-6 stimulation, MSD): ≥ 1000 nM

SMILES: CCc1cc(Nc2cc(NC(N)=O)ncc2-c2cnccn2)nc(C(C)(F)F)n1 [Example 920]
- IC50 (JH2 domain of human Tyk2; [3]): ≤ 10 nM
- IC50 (Tyk2): ≤ 10 nM
- IC50 (JAK2; IL-3 stimulated): ≥ 1000 nM
- IC50 (JAK1; IL-6 stimulated): ≥ 1000 nM

SMILES: COc1cnc(NC(C)=O)cc1Nc1cc(OC2CC2)nc(C(C)(F)F)n1 [Example 91, N-(4-((6-cyclopropoxy-2-(1,1-difluoroethyl)pyrimidin-4-yl)amino)-5-methoxypyridin-2-yl)acetamide]
- IC50 (JH2 domain of human Tyk2; [2]): ≤ 10 nM
- IC50 (Tyk2; MSD): 10 to 100 nM
- IC50 (JAK2; IL-3 stimulation, MSD): ≥ 1000 nM
- IC50 (JAK1; IL-6 stimulation, MSD): ≥ 1000 nM

SMILES: CCc1cc(Nc2cc(NC(C)=O)ncc2-c2ncccn2)nc(C(C)(F)F)n1 [Example 719, N-(4-((2-(1,1-difluoroethyl)-6-ethylpyrimidin-4-yl)amino)-5-(pyrimidin-2-yl)pyridin-2-yl)acetamide]
- IC50 (JH2 domain of human Tyk2; [1]): ≤ 10 nM
- IC50 (Tyk2; MSD): ≤ 10 nM
- IC50 (JAK2; IL-3 stimulated, MSD): ≥ 1000 nM
- IC50 (JAK1; IL-6 stimulated, MSD): ≥ 1000 nM

SMILES: CCOc1cnc(NC(C)=O)cc1Nc1cc(-c2cnn(C3CC3)c2)nc(C(C)(F)F)n1 [Example 304, N-(4-((6-(1-cyclopropyl-1H-pyrazol-4-yl)-2-(1,1-difluoroethyl)pyrimidin-4-yl)amino)-5-ethoxypyridin-2-yl)acetamide]
- IC50 (JH2 domain of human Tyk2; [2]): ≤ 10 nM
- IC50 (Tyk2; MSD): ≤ 10 nM
- IC50 (JAK2; IL-3 stimulation, MSD): ≥ 1000 nM
- IC50 (JAK1; IL-6 stimulation, MSD): ≥ 1000 nM

SMILES: COCCOc1cnc(NC(C)=O)cc1Nc1cncc(C(C)(F)F)n1 [Example 67, N-(4-((6-(1,1-difluoroethyl)pyrazin-2-yl)amino)-5-(2-methoxyethoxy)pyridin-2-yl)acetamide]
- IC50 (JH2 domain of human Tyk2; [2]): ≤ 10 nM
- IC50 (Tyk2; MSD): 10 to 100 nM
- IC50 (JAK2; IL-3 stimulation, MSD): ≥ 1000 nM
- IC50 (JAK1; IL-6 stimulation, MSD): ≥ 1000 nM

SMILES: COCc1ccc(-c2cnc(NC(C)=O)cc2Nc2cc(C)nc(C34COC(C3)C4)n2)nc1 [Example 565, N-(4′-((2-(2-oxabicyclo[2.1.1]hexan-4-yl)-6-methylpyrimidin-4-yl)amino)-5-(methoxymethyl)-[2,3′-bipyridin]-6′-yl)acetamide]
- IC50 (JH2 domain of human Tyk2; [1]): ≤ 10 nM
- IC50 (Tyk2; MSD): ≤ 10 nM
- IC50 (JAK2; IL-3 stimulated, MSD): ≥ 1000 nM
- IC50 (JAK1; IL-6 stimulated, MSD): ≥ 1000 nM

SMILES: COCCOc1cnc(NC(C)=O)cc1Nc1cc(C)nc(C(C)(C)F)n1 [Example 406, N-(4-((2-(2-fluoropropan-2-yl)-6-methylpyrimidin-4-yl)amino)-5-(2-methoxyethoxy)pyridin-2-yl)acetamide]
- IC50 (JH2 domain of human Tyk2; [1]): ≤ 10 nM
- IC50 (Tyk2; MSD): ≤ 10 nM
- IC50 (JAK2; IL-3 stimulated, MSD): ≥ 1000 nM
- IC50 (JAK1; IL-6 stimulated, MSD): ≥ 1000 nM

SMILES: COc1ccc(-c2cnc(NC(C)=O)cc2Nc2ccnc(C(C)(C)F)n2)nn1 [Example 835, N-(4-((2-(2-fluoropropan-2-yl)pyrimidin-4-yl)amino)-5-(6-methoxypyridazin-3-yl)pyridin-2-yl)acetamide]
- IC50 (JH2 domain of human Tyk2; [3]): ≤ 10 nM
- IC50 (Tyk2): ≤ 10 nM
- IC50 (JAK2; IL-3 stimulated): ≥ 1000 nM
- IC50 (JAK1; IL-6 stimulated): ≥ 1000 nM

SMILES: CC(=O)Nc1cc(Nc2cncc(C(C)(F)F)n2)c(-c2ccn(C)n2)cn1 [Example 212, N-(4-((6-(1,1-difluoroethyl)pyrazin-2-yl)amino)-5-(1-methyl-1H-pyrazol-3-yl)pyridin-2-yl)acetamide]
- IC50 (JH2 domain of human Tyk2; [2]): ≤ 10 nM
- IC50 (Tyk2; MSD): ≤ 10 nM
- IC50 (JAK2; IL-3 stimulation, MSD): 100 to 1000 nM
- IC50 (JAK1; IL-6 stimulation, MSD): ≥ 1000 nM

From patent US20260028365A1 (BIOGEN MA INC., priority 2022, published 2026)
